Source: US20230338370A1, “Treatment of Cancer with TOR Kinase Inhibitors” (Signal Pharmaceuticals, LLC, priority 2012, published 2023)

Columns and labels:
Assay in all cases: Growth inhibition assay for Breast Cancer (BC) Cell lines
Assay type in all cases: cell-based
[1] = test system: MDA-MB-453; settings: Homo sapiens; MDA-MB-453, Her2+; 96 hours, Cell Titer-Glo
Method: (§1) Growth inhibition assay for Breast Cancer (BC) Cell lines. Compounds 1 (a TOR kinase inhibitor set forth herein having molecular formula C16H16N8O) and 2 (a TOR kinase inhibitor set forth herein having molecular formula C17H18N8O2) were dissolved in dimethyl sulfoxide (DMSO) to prepare a 10 mM stock solution. A serial titration was performed to produce a working concentration range of 1.5 µM to 10 mM. Aliquots to produce final concentrations of 1.5 nM to 10 µM were spotted via an acoustic dispenser (EDC ATS-100) into an empty 384-well plate. Compounds 1 and 2 were spotted in a 10-point serial dilution fashion (3-fold dilution) in duplicate within the plate. The DMSO concentration was kept constant for a final assay concentration of 0.1% DMSO. Plates were replicated for use with different cell lines and testing periods. After compound plate replication, all plates were sealed (Agilent ThermoLoc) and stored at -20° C. for up to 1 month. […] When ready for testing, plates were removed from the freezer, thawed, and unsealed just prior to the addition of the test cells. Prior to testing, cells were grown and expanded in culture flasks to provide sufficient amounts of starting material. Cells were then diluted to the appropriate densities and added directly to the compound-spotted 384-well plates. Cells were allowed to grow for 96 hours at 37° C./5% CO2. At the time when compound was added (t0), initial cell number was assessed via a viability assay (Cell Titer-Glo) by quantifying the level of luminescence generated by ATP present in viable cells. After 96 hours, cell viability of compound-treated cells was assessed via Cell Titer-Glo and luminescence measurement. Cell lines were assayed for growth inhibition by Compounds 1 and 2 in at least 3 independent tests. A control cell line (the lung tumor cell line, A549) was included in each of the assays. The compound response against this control cell line was monitored closely to enable comparison of the data generated through the assay period. All data were normalized and presented as a percentage of the DMSO-treated cells. Results were then expressed as a GI50 value. The GI50 value corrects for the cell count at time zero.

[2] = test system: HCC1500; settings: HCC1500, ER+/PR+; 96 hours, Cell Titer-Glo
Method: as §1

[3] = test system: HCC202; settings: HCC202, Her2+; 96 hours, Cell Titer-Glo
Method: as §1

[4] = test system: EFM-192A; settings: Her2+, 96 hours, Cell Titer-Glo
Method: as §1

[5] = test system: AU565; settings: Homo sapiens; AU565, Her2+; 96 hours, Cell Titer-Glo
Method: as §1

[6] = test system: HCC1954; settings: Homo sapiens; HCC1954, Her2+; 96 hours, Cell Titer-Glo
Method: as §1

[7] = test system: MDA-MB-415; settings: Homo sapiens; MDA-MB-415, ER+/PR+; 96 hours, Cell Titer-Glo
Method: as §1

[8] = test system: HCC1569; settings: Homo sapiens; HCC1569, Her2+; 96 hours, Cell Titer-Glo
Method: as §1

[9] = test system: ZR-75-1; settings: Homo sapiens; ZR-75-1, ER+/PR+; 96 hours, Cell Titer-Glo
Method: as §1

[10] = test system: ZR-75-30; settings: Homo sapiens; ZR-75-30, Her2+; 96 hours, Cell Titer-Glo
Method: as §1

[11] = test system: MCF7; settings: Homo sapiens; MCF7, ER+/PR+; 96 hours, Cell Titer-Glo
Method: as §1

[12] = test system: SK-BR-3; settings: Homo sapiens; SK-BR-3, Her2+; 96 hours, Cell Titer-Glo
Method: as §1

[13] = test system: CAMA-1; settings: Homo sapiens; CAMA-1, ER+/PR+; 96 hours, Cell Titer-Glo
Method: as §1

[14] = test system: MDA-MB-175-VII; settings: Homo sapiens, ER+/PR+, 96 hours, Cell Titer-Glo
Method: as §1

[15] = test system: T47D; settings: Homo sapiens, ER+/PR+, 96 hours, Cell Titer-Glo
Method: as §1

[16] = test system: HCC1428; settings: Homo sapiens; HCC1428, ER+/PR+; 96 hours, Cell Titer-Glo
Method: as §1

[17] = test system: BT-474; settings: Homo sapiens; BT-474, Her2+; 96 hours, Cell Titer-Glo
Method: as §1

[18] = test system: UACC-812; settings: Homo sapiens; UACC-812, Her2+; 96 hours, Cell Titer-Glo
Method: as §1

[19] = test system: KPL-1; settings: KPL-1, ER+/PR+; 96 hours, Cell Titer-Glo
Method: as §1

[20] = test system: EFM-19; settings: Homo sapiens; EFM-19, ER+/PR+; 96 hours, Cell Titer-Glo
Method: as §1

[21] = test system: MDA-MB-134-VI; settings: Homo sapiens, ER+/PR+, 96 hours, Cell Titer-Glo
Method: as §1

[22] = test system: MDA-MB-361; settings: Homo sapiens; MDA-MB-361, Her2+; 96 hours, Cell Titer-Glo
Method: as §1

[23] = test system: BT-483; settings: Homo sapiens; BT-483, ER+/PR+; 96 hours, Cell Titer-Glo
Method: as §1

Q: `COCCN1C(=O)CNc2ncc(-c3ccc(-c4nnc[nH]4)nc3C)nc21` [Compound 2, 1-(2-methoxyethyl)-7-(2-methyl-6-(4H-1,2,4-triazol-3-yl)pyridin-3-yl)-3,4-dihydropyrazino[2,3-b]pyrazin-2(1H)-one] was tested. Which GI50 [1] did it give?
A: 44.5 nM

Q: And the GI50 [2]?
A: 24.6 nM

Q: What about the GI50 [3] of the same molecule?
A: 8.9 nM

Q: And the GI50 [4]?
A: 74.1 nM

Q: And the GI50 [5]?
A: 58.2 nM

Q: And the GI50 [6]?
A: 73.3 nM

Q: What about the GI50 [7] of the same molecule?
A: 53.4 nM

Q: And the GI50 [8]?
A: 120 nM

Q: And the GI50 [9]?
A: 10.3 nM

Q: What about the GI50 [10] of the same molecule?
A: 18.8 nM

Q: What about the GI50 [11] of the same molecule?
A: 83.4 nM

Q: And the GI50 [12]?
A: 66.8 nM

Q: And the GI50 [13]?
A: 44.6 nM

Q: What about the GI50 [14] of the same molecule?
A: 17 nM

Q: And the GI50 [15]?
A: 21.4 nM

Q: And the GI50 [16]?
A: 96.5 nM

Q: What about the GI50 [17] of the same molecule?
A: 78.2 nM

Q: And the GI50 [18]?
A: 32.1 nM

Q: What about the GI50 [19] of the same molecule?
A: 50.7 nM

Q: What about the GI50 [20] of the same molecule?
A: 21.1 nM

Q: What about the GI50 [21] of the same molecule?
A: 69.5 nM

Q: What about the GI50 [22] of the same molecule?
A: 28.5 nM

Q: What about the GI50 [23] of the same molecule?
A: 17.3 nM
